{"source": "patent US20120322060A1", "about": "“DIAGNOSIS AND MONITORING TREATMENT OF PSYCHIATRIC DISEASES WITH SPADIN AND RELATED METHODS” (CENTRE NATIONAL DE LE RECHERCHE SCIENTIFIQUE - CNRS -, priority 2011, published 2012)", "molecules": {"B1": {"name": "spadin (peptide)", "peptide": "APLPRWSGPIGVSWGLR"}}, "key": {"mice [1]": {"system": "mice", "assay": "Porsolt Forced Swim Test (FST) in mice", "type": "in vivo, mouse", "method": "Mice (Janvier, France) were placed individually in cylinders (height: 30 cm, diameter: 15 cm) filled with 12 cm deep water (temperature: 22±1° C.) for 6 min. The total period of immobility was recorded during the last 4 min."}, "mice [2]": {"system": "mice", "assay": "Tail Suspension Test (TST)", "type": "in vivo, mouse", "conditions": "subchronic, 4 days; spadin i.v. 10^-6 M, fluoxetine 3 mg/kg", "method": "Mice were suspended by the tail. […] The immobility time was recorded during a 6 min test session."}, "mice [3]": {"system": "mice", "assay": "Novelty-Suppressed Feeding test (NSF)", "type": "in vivo, mouse", "conditions": "4 days; spadin i.v. 10^-6 M, fluoxetine i.p. 3 mg/kg", "method": "NSF paradigm is a conflict test that elicits competing motivations: the drive to eat and the fear of venturing into the center of a bright arena. Latency to begin eating is used as an index of anxiety- and depression-like behavior. After 4 day treatment (saline or spadin, i.v.) and 24 hours food-deprivation, mice were presented with a food pellet placed in the center of a brightly plastic box (50×50×20 cm). Latency to begin eating was measured as previously described."}, "mice [4]": {"system": "mice", "assay": "Corticosterone assay after tube restraint stress", "type": "in vivo, mouse", "conditions": "30 min after 10 min tube restraint; spadin i.p. 10^-5 M", "method": "Mice were individually housed for at least 12 hours before blood sample collection. Serum samples, collected in the morning were obtained by retroorbital puncture before and 30 min after the end of a 10-min tube restraint. Levels of corticosterone were measured by radioimmunoassay using a commercially available kit (MP Biomedicals)."}, "[5]": {"system": "dentate gyrus of the mouse hippocampus", "assay": "Hippocampal neurogenesis (BrdU / DCX labeling)", "type": "in vivo", "method": "Twenty-four hours after the injection of BrdU (120 mg per kg of body weight in a 300 μl bolus), mice were euthanized and transcardially perfused with 4% cold paraformaldehyde. Serial sections of the brains were cut (40 μm) throughout the entire hippocampus on a vibratome (Leica). Every sixth section throughout the hippocampus was processed for BrdU or doublecortin (DCX) immunohistochemistry, as previously described. For each immunodetection, slides were first incubated overnight at 4° C. with a mouse monoclonal anti-BrdU antibody (1:200; Becton-Dickinson) or a goat anti-DCX (1:400, Santa Cruz Laboratories). For chromogenic immunodetection, sections were then incubated for 1 hour in biotin-conjugated species-specific secondary antibodies (1:100; Vector Laboratories) followed by a peroxidase-avidin complex solution according to the manufacturer's protocol. The peroxidase activity of immune complexes was visualized with DAB staining using the VectaStain ABC kit (Vector Laboratories). For fluorescent double-labeling, performed to determine the cell phenotype, sections were incubated overnight at 4° C. with anti-sheep BrdU (1:200, Interchim), anti-goat DCX (1:200, Santa Cruz Laboratories), or an anti-GFAP (Glial Fibrillary acidic protein, marker for astrocytes, 1:250, Dako). […] All BrdU-labeled cells in the granular cell layer and subgranular zone (SGZ) were counted in each section (n=10 and 5 mice per group) at 400× and 1000× magnification under a light microscope (Olympus) by an experimenter blinded to the study code. The total number of BrdU-positive cells per section was multiplied by 6 to obtain the total number of cells per dentate gyrus. The counting of BrdU/DCX labeled cells was performed using a Laser Scanning Confocal Microscope (TCS SP, Leica) equipped with a DMIRBE inverted microscope."}, "TREK-1 [6]": {"molecular_target": "T1, TREK-1 (Mus musculus, UniProt P97438)", "T1 sequence (P97438 1-426)": "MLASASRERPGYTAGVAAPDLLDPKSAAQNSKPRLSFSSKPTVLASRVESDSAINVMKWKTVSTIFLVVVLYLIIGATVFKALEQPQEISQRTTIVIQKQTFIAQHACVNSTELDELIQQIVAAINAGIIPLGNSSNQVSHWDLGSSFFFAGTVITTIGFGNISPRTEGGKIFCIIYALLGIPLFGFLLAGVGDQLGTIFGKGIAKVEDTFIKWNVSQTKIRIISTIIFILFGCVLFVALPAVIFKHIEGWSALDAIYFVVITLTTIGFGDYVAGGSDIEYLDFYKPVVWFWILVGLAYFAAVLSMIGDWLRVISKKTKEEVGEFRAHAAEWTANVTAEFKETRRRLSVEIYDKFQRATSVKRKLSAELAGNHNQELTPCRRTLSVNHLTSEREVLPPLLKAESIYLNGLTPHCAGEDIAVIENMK", "assay": "Whole-cell patch-clamp on cultured pyramidal neurons from hippocampus", "type": "cell-based", "design": "endogenous in cells; host or cells: primary hippocampal pyramidal neurons from newborn mice", "conditions": "20 μM fluoxetine", "method": "A, Cultured pyramidal neuron from hippocampus, with on top, the patch-clamp pipette. Neurons were chosen according to their morphology. B, Current recorded in response to ramps of potential obtained in the various conditions indicated (aa: arachidonic acid: 10 μM, Spadin: 1[…]μM, Fluoxetine: 20 μM). Neurons were recorded in the whole-cell configuration of the patch-clamp technique. In voltage-clamp, ramps of potential from −90 mV to 70 mV were applied every 10 sec. The % variation of the current amplitude was always measured at −50 mV. The currents were recorded in response to such ramps in control conditions and in the presence of a cocktail of potassium blockers suitable to isolate the TREK currents (10 mM tetraethyl ammonium (TEA), 3 mM 4-aminopyridine (4-AP), 50 nM charybdotoxin, 10 μM glibenclamide, 100 nM apamin). […] The blocks were reversible. C, Time course of spadin and fluoxetine effects. Applications are indicated by the horizontal bars.\nCortical neurons were prepared from 14 old mouse embryos whereas hippocampal neurons were prepared from new born mice. Briefly, dissected brain areas were dissociated and neurons were plated on polylysine-treated 35 or 60 mm dishes and maintained in culture in Neurobasal medium supplemented with B27, Glutamax and antibiotics for 2 to 3 weeks before to be used for electrophsysiological or biochemical experiments."}, "TREK-1 [7]": {"molecular_target": "T1, TREK-1", "assay": "Whole-cell patch-clamp on CA3 pyramidal neurons in hippocampus brain slices", "type": "cell-based", "design": "a cellular network that endogenously expresses both TREK-1 and NTSR3/Sortilin; from tissue; host or cells: mouse hippocampal brain slices, CA3 pyramidal neurons", "conditions": "wild-type CA3 neurons, no aa"}, "TREK-1 [8]": {"molecular_target": "T1, TREK-1", "assay": "Competition with 125I-spadin for binding to TREK-1 transfected COS-7 cell homogenates", "design": "expressed in transfected cells; host or cells: COS-7 (DEAE-dextran transfection)", "conditions": "TREK-1 transfected COS-7 homogenates, read-out: affinity for TREK-1", "procedure": "Experiments were performed using COS-7 cells (10^6 cells per diameter 100 dish) transfected with TREK-1 (2 μg/dish) in the presence or in the absence of NTSR3/sortilin (2 μg/dish) using the DEAE-dextran protocol.\nIncubations were terminated by addition of 2 ml of ice-cold binding buffer followed by filtration through cellulose acetate filters (Sartorius, Göttingen, Germany) and washing twice with 2 ml of ice-cold buffer. Radioactivity on filters was counted with a gamma-counter."}, "TREK-1 [9]": {"molecular_target": "T1, TREK-1", "assay": "Whole-cell patch-clamp on TREK-1 transfected COS-7 cells", "type": "cell-based", "design": "GFP; expressed in transfected cells; host or cells: COS-7 (DEAE-dextran transfection)", "conditions": "after 90 sec of application", "method": "All electrophysiological experiments were done on COS-7 cells seeded at a density of 20,000 cells/35-mm dish 24 h before transfection. Cells were transfected by the classical DEAE-dextran method with TREK-1-GFP plasmids (0.1 μg/μL). Cells were visualized 48-72 h after transfection using fluorescence.\nThe whole-cell patch-clamp technique was used to evaluate TREK-1 potassium channel current by using a RK 400 patch-clamp amplifier (Axon Instruments, U.S.A.), as previously described. Currents were lowpass filtered at 3 kHz, digitized at 10 kHz using a 12-bit analog-to-digital converter. […] The bath solution contained (in mM): 150 NaCl, 5 KCl, 3 MgCl2, 1 CaCl2, and 10 HEPES, adjusted to pH 7.4 with NaOH; the patch pipette solution contained (in mM): 155 KCl, 3 MgCl2, 5 EGTA, and 10 HEPES, adjusted to pH 7.2 with KOH. Cells were clamped at −80 mV and voltage changes were either applied by ramp (from −100 to 50 mV, 1 s in duration) or by step (from −100 to 40 mV, 1.5 s in duration). Cells were continuously superfused with a microperfusion system. The pipette capacitance was not subtracted from total membrane capacitance and there was no leak substraction. All experiments were done at room temperature (21° C. to 22° C.) and in the presence of a cocktail of potassium channel inhibitors (K^+ blockers: 10 mM tetraethyl ammonium (TEA), 3 mM 4-aminopyridine (4-AP), 50 nM charybdotoxin, 10 μM glibenclamide, 100 nM apamin).\nPclamp software was used to analyze currents recorded in the whole-cell mode measured at 0 mV. Results are expressed as means±SD. To obtain the IC50 value for dose-dependent inhibition, experimental data were fitted with a standard sigmoidal function."}, "[10]": {"molecular_target": "NTSR3/Sortilin (endogenous, C13NJ microglial cell line)", "sequence (Q99523 78-831)": "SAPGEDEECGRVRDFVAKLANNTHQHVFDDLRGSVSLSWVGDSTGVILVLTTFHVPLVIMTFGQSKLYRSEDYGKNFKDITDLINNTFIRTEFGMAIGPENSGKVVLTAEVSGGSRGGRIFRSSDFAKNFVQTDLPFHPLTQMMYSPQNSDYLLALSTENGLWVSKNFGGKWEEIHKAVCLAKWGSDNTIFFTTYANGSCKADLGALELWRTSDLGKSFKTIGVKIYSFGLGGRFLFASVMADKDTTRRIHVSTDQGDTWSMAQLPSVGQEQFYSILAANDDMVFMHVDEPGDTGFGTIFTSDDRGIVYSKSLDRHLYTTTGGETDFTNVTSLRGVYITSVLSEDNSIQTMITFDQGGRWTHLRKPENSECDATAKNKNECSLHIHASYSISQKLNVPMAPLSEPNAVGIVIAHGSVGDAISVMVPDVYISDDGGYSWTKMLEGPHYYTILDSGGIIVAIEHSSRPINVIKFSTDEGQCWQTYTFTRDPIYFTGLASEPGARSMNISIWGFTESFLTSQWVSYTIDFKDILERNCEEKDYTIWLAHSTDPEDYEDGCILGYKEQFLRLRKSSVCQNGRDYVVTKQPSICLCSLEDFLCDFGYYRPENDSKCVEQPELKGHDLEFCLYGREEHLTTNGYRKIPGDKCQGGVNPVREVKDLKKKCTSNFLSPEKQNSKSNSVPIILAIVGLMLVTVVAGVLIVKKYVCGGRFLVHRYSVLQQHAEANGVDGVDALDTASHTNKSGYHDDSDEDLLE", "assay": "cell-based or functional assay"}, "[11]": {"molecular_target": "TREK-1 channel (expressed by transfection in COS-7 cells)", "sequence (O95069 whole entry)": "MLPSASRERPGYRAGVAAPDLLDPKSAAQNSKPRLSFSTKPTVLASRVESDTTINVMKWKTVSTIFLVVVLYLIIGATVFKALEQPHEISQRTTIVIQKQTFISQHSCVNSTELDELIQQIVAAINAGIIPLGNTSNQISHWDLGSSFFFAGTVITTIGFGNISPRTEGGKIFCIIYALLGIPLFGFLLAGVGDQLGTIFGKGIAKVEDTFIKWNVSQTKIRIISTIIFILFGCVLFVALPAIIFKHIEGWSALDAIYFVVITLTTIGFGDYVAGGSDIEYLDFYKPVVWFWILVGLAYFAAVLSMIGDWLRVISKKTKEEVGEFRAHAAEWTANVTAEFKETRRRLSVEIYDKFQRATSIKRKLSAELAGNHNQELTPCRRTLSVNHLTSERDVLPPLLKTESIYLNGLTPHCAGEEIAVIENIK", "assay": "cell-based or functional assay"}, "[12]": {"molecular_target": "NTSR3/Sortilin (endogenous, C13NJ microglial cell line)", "assay": "competition with 0.2 nM 125I-NT on C13NJ cell homogenates, filtration"}, "[13]": {"molecular_target": "TREK-1 channel (expressed by transfection in COS-7 cells)", "assay": "competition with 0.2 nM 125I-spadin on TREK-1 transfected COS-7 cell homogenates, filtration"}}, "note": "“Also recorded” adds a separate entry of the source. No end group written: not given here.", "data": [{"molecule": "CNCCC(Oc1ccc(C(F)(F)F)cc1)c1ccccc1", "note": "(stereo not shown) [fluoxetine, Fluoxetine, reference compound]", "values": [{"measurement": "reduction of time of immobility", "setting": "mice [1]; chronic, 15 days, spadin 10^-6 M, fluoxetine 1 mg/kg", "result": "around 30%"}, {"measurement": "reduction of time spent immobile", "setting": "mice [1]; subchronic, 4 days, spadin i.v. 10^-6 M, fluoxetine 3 mg/kg", "result": "had no effect; also recorded: without effect"}, {"measurement": "reduction of time spent immobile", "setting": "mice [2]", "result": "had no effect; also recorded: without effect"}, {"measurement": "latency to feed versus saline", "setting": "mice [3]", "result": "had no effect"}, {"measurement": "reduction of stress-induced increase in corticosterone levels versus saline", "setting": "mice [4]", "result": 59.1, "unit": "%"}, {"measurement": "number of BrdU-positive cells in the SGZ versus saline", "setting": "[5]; 4-day treatment, spadin i.p. 10^-5 M", "result": "had no effect"}, {"measurement": "number of BrdU-positive cells versus saline", "setting": "[5]; 15 days", "result": "significant increase"}, {"measurement": "block of arachidonic acid evoked current (putative TREK current)", "setting": "TREK-1 [6]", "result": "fully blocked"}, {"measurement": "inhibition of the current recorded in presence of potassium blockers, substance alone", "setting": "TREK-1 [7]", "result": "13.0 ± 3.8", "unit": "%"}]}, {"molecule": "QDRLDAPPPPAAPLPR [N-terminal fragment Gln1-Arg16, reference compound]", "values": [{"measurement": "Kd", "setting": "TREK-1 [8]", "result": 1000, "unit": "nM"}, {"measurement": "inhibition of current increase induced by 10 μM aa", "setting": "TREK-1 [9]", "result": "unable to inhibit"}]}, {"molecule": "B1", "values": [{"measurement": "C13NJ cell migration induced by 10 nM NT in the presence of 1 µM spadin (% of migration with 10% FCS)", "setting": "[10]", "result": 6.2, "unit": "%"}, {"measurement": "IC50 of dose-dependent inhibition of TREK-1 current at 0 mV", "setting": "[11]", "result": 70.7, "unit": "nM"}, {"measurement": "block of arachidonic acid-stimulated TREK-1 current (whole-cell patch clamp, transfected COS-7 cells, 100 nM spadin)", "setting": "[11]", "result": 63, "unit": "%"}, {"measurement": "affinity", "setting": "[12]", "result": 8, "unit": "nM"}, {"measurement": "affinity", "setting": "[13]", "result": 10, "unit": "nM"}]}]}
